{
  "source": "patent US11179408B2",
  "about": "“Use of cyanoglucosides and pharmaceutical formulations thereof in the treatment of diabetes” (UNIVERSIDADE ESTADUAL PAULISTA JULIO DE MESQUITA FILHO, priority 2016, dated 2021)",
  "key": {"diabetic mice [1]": {"system": "diabetic mice", "test": "Fasting blood glucose in streptozotocin diabetic mice", "format": "in vivo, Male Swiss mice", "conditions": "for fasting blood glucose: streptozotocin diabetic mice, end of treatment, p<0.05", "description": "The hydroalcoholic extract as obtained in Example 1 and the major compound lithospermoside (BH-21) as obtained in Example 2 were evaluated for their pharmacological activity in reducing fasting blood glucose and improving glucose tolerance in diabetic animals as described below.\n(§1) The major compound of the cyanoglicoside fraction, BH-21 was tested at a concentration of 10 mg/kg in diabetic mice by gavage daily for 28 days. Male Swiss mice were divided into two groups and treated daily for 28 days by gavage: a control group (CTLSAL) that received saline vehicle (0.9% NaCl) and a group called streptozotocin, previously treated with this drug (150 mg/kg). Animals with blood glucose higher than 250 mg/dl were included in the study and divided into three experimental groups. One group, named streptozotocin saline (STZSAL) received saline (0.9% NaCl); another group of animals treated with metformin (STZMET) at the dose of 300 mg/kg and a third group (LITHOS) received the compound BH-21 (lithospermoside), diluted in saline at a dose of 10 mg/kg body weight."}, "diabetic mice [2]": {"system": "diabetic mice", "test": "Intraperitoneal glucose tolerance test (IPGTT) in diabetic mice", "format": "in vivo", "conditions": "streptozotocin diabetic mice; for IPGTT area under the curve (AUC): compared to CTLSAL group", "description": "The leaves extract obtained under Example 1 was tested at a concentration of 400 mg/kg. The mice were treated daily for days by gavage with the extract as well as metformin (300 mg/kg), and at the end of treatment they underwent an […] glucose tolerance test.\nThe intraperitoneal glucose tolerance assay (IPGTT) was used to evaluate the glucose disappearance from the plasma of 8-10 hours fasted mice at time 0 and after glucose intraperitoneal injection (2 g/kg) in 15, 30, 60, 90 and 120 min as represented on FIG. 2A where curves represent: CTLSAL: normoglycemic mice treated orally with saline vehicle (0.9% NaCl), STZSAL: diabetic mice treated orally with saline vehicle (0.9% NaCl), STZMET: diabetic mice treated orally with metformin at the concentration of 300 mg/kg, STZEXT: diabetic mice treated orally with 70% EtOH extract at a concentration of 400 mg/kg. […] Data expressed as mean±standard error of the mean. ANOVA followed by Tukey post test. a vs. CTLSAL, b vs. STZSAL, c vs. STZMET, N=8-12, p<0.05.\nas §1"}, "[3]": {"system": "alloxan-induced diabetic rats", "conditions": "oral, 50, 100 and 200 mg/kg; cited from earlier work"}, "normal rats": {"system": "normal rats", "conditions": "oral, 200 mg/kg, 1 h after treatment; cited from earlier work"}, "[4]": {"conditions": "10 mg/kg by gavage daily for 28 days"}},
  "data": [
    {"molecule": "N#C/C=C1/C=C[C@@H](O)[C@H](O)[C@H]1OC1OC(CO)C(O)C(O)C1O", "note": "(stereo in doubt) [BH-21, (2Z)-2-[(4R,5S,6S)-4,5-dihydroxy-6-[[(2S,3S,4R,5R,6S)-3,4,5-trihydroxy-6-(hydroxymethyl)-2-oxanyl]oxy]-1-cyclohex-2-enylidene]acetonitrile]", "values": [
      {"measurement": "in vivo hypoglycemic activity relative to metformin", "setting": "diabetic mice [1]; higher than metformin", "value": "about 30 times"},
      {"measurement": "fasting blood glucose", "setting": "diabetic mice [1]; [4]", "value": "significantly lower than in STZSAL and STZMET groups but greater than the CTLSAL group"},
      {"measurement": "IPGTT area under the curve (AUC)", "setting": "diabetic mice [2]; [4]", "value": "no significant difference"},
      {"measurement": "IPGTT blood glucose values after intraperitoneal administration of glucose", "setting": "diabetic mice [2]; 10 mg/kg daily for 28 days, vs metformin 300 mg/kg group, p<0.05", "value": "significantly lower than the STZMET group at all times"}
    ]},
    {"molecule": "C[C@@H]1O[C@@H](Oc2cc(O)c3c(=O)c(O[C@@H]4O[C@@H](C)[C@H](O)[C@@H](O)[C@H]4O)c(-c4ccc(O)cc4)oc3c2)[C@H](O)[C@H](O)[C@H]1O", "note": "[kaempferitrin, kaempferol-3,7-O—(R)-dirhamnoside]", "values": [
      {"measurement": "hypoglycemic effect", "setting": "[3]", "value": "evident at all doses tested"},
      {"measurement": "blood glucose lowering", "setting": "normal rats", "value": "blood glucose lowering was observed only with the higher dose"}
    ]},
    {"molecule": "CN(C)C(=N)N=C(N)N", "note": "[metformin]", "values": [
      {"measurement": "fasting blood glucose", "setting": "diabetic mice [1]; metformin 300 mg/kg daily for 28 days, vs CTLSAL", "value": "significantly increased"},
      {"measurement": "IPGTT area under the curve (AUC)", "setting": "diabetic mice [2]; metformin 300 mg/kg daily for 28 days", "value": "no significant difference"}
    ]}
  ]
}
